Experimental data from patent US12485075B2, “Particulates of polyphenolics and dispersions thereof” (priority 2020, dated 2025).

Assays:
human skin explants [1] = experiment: Intracellular ROS scavenging activity assay, HEV exposure; assay type: cell-based; conditions: HEV exposure 412 nm and 450 nm
Description: Intracellular Reactive Oxygen Species (ROS) Scavenging Activity Assays were conducted on human skin explants from donors of skin Phototype II. The skin explants were treated with, a non-fluorescent probe, 2′, 7′-Dichlorofluorescein diacetate (DCFHDA). […] DCFH-DA is taken up by cells by passive diffusion and DCFH-DA is deacetylated by cellular esterases to non-fluorescent DCFH, which is trapped within cells. The fluorescent 2′, 7′-dichlorofluorescein (DCF) is generated upon enzymatic reduction and subsequent oxidation by ROS. Fluorescence was measured and correlates to the test item's ability to scavenge ROS. The results are presented as percentage reduction of ROS relative to the level generated following UVA/UVB exposure of unprotected skin.

human skin explants [2] = experiment: Intracellular ROS scavenging activity assay, solar simulated UVA/UVB exposure; assay type: cell-based
Description: Intracellular Reactive Oxygen Species (ROS) Scavenging Activity Assays were conducted on human skin explants from donors of skin Phototype II. The skin explants were treated with, a non-fluorescent probe, 2′, 7′-Dichlorofluorescein diacetate (DCFHDA). After treatment, the skin explants were treated with the moisturizer compositions at a dose of 2 mg/cm^2 and exposed to solar simulated UVA/UVB at doses of 70 mJ/cm^2 in triplicate. DCFH-DA is taken up by cells by passive diffusion and DCFH-DA is deacetylated by cellular esterases to non-fluorescent DCFH, which is trapped within cells. The fluorescent 2′, 7′-dichlorofluorescein (DCF) is generated upon enzymatic reduction and subsequent oxidation by ROS. Fluorescence was measured and correlates to the test item's ability to scavenge ROS. The results are presented as percentage reduction of ROS relative to the level generated following UVA/UVB exposure of unprotected skin. The results of these studies are shown in the Table below and presented as percentage reduction in intracellular ROS relative to unprotected skin. […] These associated skin protective effects include but are not limited to suppressing lipid peroxidation in the skin, preventing or reducing the appearance of lines and wrinkles in skin, preventing loss of elasticity of skin, preventing thinning of skin, and preventing pigment darkening of skin.

[3] = cited from earlier work

Row | SMILES | reduction in ROS, result in words (human skin explants [1]) | reduction in ROS, result in words (human skin explants [2]) | solubility in bulk oils, such as soybean oil [3] [% by weigh]
1 | Cc1c(C)c2c(c(C)c1O)CCC(C)(CCCC(C)CCCC(C)CCCC(C)C)O2 (racemic) [DL-alpha-tocopherol] | no statistically significant reduction in ROS | statistically significant reduction in ROS | –
2 | C[C@@H]1O[C@@H](OC[C@H]2O[C@@H](Oc3c(-c4ccc(O)c(O)c4)oc4cc(O)cc(O)c4c3=O)[C@H](O)[C@@H](O)[C@@H]2O)[C@H](O)[C@H](O)[C@H]1O [Rutin, quercetin-3-O-rutinoside] | – | – | 0.1
